# Experimental data taken from ChEMBL document CHEMBL1145682, “Bioactive compounds from Taiwania cryptomerioides” (J Nat Prod, 1997).
# What was measured:
# Aedes aegypti = assay: Insecticidal activity against yellow fever mosquito larvae; format: functional
# A549 = assay: Cytotoxicity against human A549 cells after 7 days by MTT assay; format: functional; settings: A549, 168 h, read-out: ED50 (the source's name)
# HT-29 = assay: Cytotoxicity against human HT-29 cells after 7 days by MTT assay; format: functional; settings: HT-29, 168 h, read-out: ED50 (the source's name)
# [1] = Toxicity in Artemia salina; format: organism-based; settings: in vivo
# MCF7 = assay: Cytotoxicity against human MCF7 cells after 7 days by MTT assay; format: functional; settings: MCF7, 168 h, read-out: ED50 (the source's name)
Compound,LC50 (Aedes aegypti) [µg/mL],EC50 (A549) [µg/mL],EC50 (HT-29) [µg/mL],LC50 [1] [µg/mL],EC50 (MCF7) [µg/mL]
CC1=C[C@H]2[C@@H](C(C)C)CC[C@@](C)(O)[C@H]2CC1=O,200,8.78,7.85,54.4,12.9
CC1=C[C@@H]2[C@@H](CC1)[C@](C)(O)CC[C@H]2C(C)C,2,11.1,0.778,9.4,13.1
CC(C)[C@@H]1CC[C@@](C)(O)[C@]2(O)[C@@H](O)C[C@@H](C)C[C@@H]12,> 250,13.3,12,84.8,41
CC1=C[C@@H]2[C@@H](CC1=O)[C@](C)(O)CC[C@H]2C(C)C,50,32.2,32.5,200,30.1
COc1cccc2c1C(=O)c1c(O)c3c(c(O)c1C2=O)C[C@@](O)(C(=O)CO)C[C@@H]3O[C@H]1C[C@H](N)[C@H](O)[C@H](C)O1 [DOXORUBICIN],,0.00499,0.0357,,0.189
CC(C)c1cc2c(cc1O)[C@@]1(C)CCCC(C)(C)[C@@H]1CC2 [FERRUGINOL],3,6.47,6.43,42.3,23.4
O=C1OCc2c1cc1ccc3c(c1c2-c1ccc2c(c1)OCO2)OCO3 [HELIOXANTHIN],3,,,> 500,
